Data reported in US20080124384A1, “Heteroaryl Substituted Piperazinyl-Pyridine Analogues” (priority 2005, published 2008).

Key:
human capsaicin receptor [1] = target: T1, human capsaicin receptor (Homo sapiens, UniProt Q8NER1); test: Calcium mobilization assay, determination of antagonist activity (Example 6); format: cell-based; conditions: cells expressing human capsaicin receptor; capsaicin at its EC50; read-out: IC50 determined as described in Example 6
T1 construct: expressed in transfected cells; host or cells: HEK293 cells stably transfected with pBK-CMV construct
Source text: A cDNA encoding full length human capsaicin receptor (SEQ ID NO:1, 2 or 3 of U.S. Pat. No. 6,482,611) is subcloned in the plasmid pBK-CMV (Stratagene, La Jolla, Calif.) for recombinant expression in mammalian cells.
Human embryonic kidney (HEK293) cells are transfected with the pBK-CMV expression construct encoding the full length human capsaicin receptor using standard methods. […] Independent clones are isolated from this pool by limiting dilution to obtain clonal stable cell lines for use in subsequent experiments.
This Example illustrates representative calcium mobilization assays for use in evaluating test compounds for agonist and antagonist activity.
(§1) Cells transfected with expression plasmids (as described in Example 4) and thereby expressing human capsaicin receptor are seeded and grown to 70-90% confluency in FALCON black-walled, clear-bottomed 96-well plates (#3904, BECTON-DICKINSON, Franklin Lakes, N.J.). The culture medium is emptied from the 96 well plates and FLUO-3 AM calcium sensitive dye (Molecular Probes, Eugene, Oreg.) is added to each well (dye solution: 1 mg FLUO-3 AM, 440 μL DMSO and 440 μl 20% pluronic acid in DMSO, diluted 1:250 in Krebs-Ringer HEPES (KRH) buffer (25 mM HEPES, 5 mM KCl, 0.96 mM NaH2PO4, 1 mM MgSO4, 2 mM CaCl2, 5 mM glucose, 1 mM probenecid, pH 7.4), 50 μl diluted solution per well). Plates are covered with aluminum foil and incubated at 37° C. for 1-2 hours in an environment containing 5% CO2. After the incubation, the dye is emptied from the plates, and the cells are washed once with KRH buffer, and resuspended in KRH buffer.
To measure the ability of a test compound to agonize or antagonize a calcium mobilization response in cells expressing capsaicin receptors to capsaicin or other vanilloid agonist, the EC50 of the agonist capsaicin is first determined. An additional 20 μl of KRH buffer and 1 μl DMSO is added to each well of cells, prepared as described above. 100 μl capsaicin in KRH buffer is automatically transferred by the FLIPR instrument to each well. […] Data obtained between 30 and 60 seconds after agonist application are used to generate an 8-point concentration response curve, with final capsaicin concentrations of 1 nM to 3 μM.
Test compounds are dissolved in DMSO, diluted in 20 μl KRH buffer so that the final concentration of test compounds in the assay well is between 1 μM and 5 μM, and added to cells prepared as described above. The 96 well plates containing prepared cells and test compounds are incubated in the dark, at room temperature for 0.5 to 6 hours. It is important that the incubation not continue beyond 6 hours. Just prior to determining the fluorescence response, 100 μl capsaicin in KRH buffer at twice the EC50 concentration determined as described above is automatically added by the FLIPR instrument to each well of the 96 well plate for a final sample volume of 200 μl and a final capsaicin concentration equal to the EC50. The final concentration of test compounds in the assay wells is between 1 μM and 5 μM.

human capsaicin receptor [2] = target: T1, human capsaicin receptor; test: Calcium mobilization assay, agonist response (Example 6); format: cell-based; conditions: positive control in the agonist assay; read-out: approximate EC90 concentration
Description: as §1
To measure the ability of a test compound to agonize or antagonize a calcium mobilization response in cells expressing capsaicin receptors to capsaicin or other vanilloid agonist, the EC50 of the agonist capsaicin is first determined. An additional 20 μl of KRH buffer and 1 μl DMSO is added to each well of cells, prepared as described above. 100 μl capsaicin in KRH buffer is automatically transferred by the FLIPR instrument to each well. […]

VR = conditions: typically; no more than moderate affinity; read-out: Ki value (binds to VR); cited from earlier work

T1 sequence (Q8NER1 whole entry): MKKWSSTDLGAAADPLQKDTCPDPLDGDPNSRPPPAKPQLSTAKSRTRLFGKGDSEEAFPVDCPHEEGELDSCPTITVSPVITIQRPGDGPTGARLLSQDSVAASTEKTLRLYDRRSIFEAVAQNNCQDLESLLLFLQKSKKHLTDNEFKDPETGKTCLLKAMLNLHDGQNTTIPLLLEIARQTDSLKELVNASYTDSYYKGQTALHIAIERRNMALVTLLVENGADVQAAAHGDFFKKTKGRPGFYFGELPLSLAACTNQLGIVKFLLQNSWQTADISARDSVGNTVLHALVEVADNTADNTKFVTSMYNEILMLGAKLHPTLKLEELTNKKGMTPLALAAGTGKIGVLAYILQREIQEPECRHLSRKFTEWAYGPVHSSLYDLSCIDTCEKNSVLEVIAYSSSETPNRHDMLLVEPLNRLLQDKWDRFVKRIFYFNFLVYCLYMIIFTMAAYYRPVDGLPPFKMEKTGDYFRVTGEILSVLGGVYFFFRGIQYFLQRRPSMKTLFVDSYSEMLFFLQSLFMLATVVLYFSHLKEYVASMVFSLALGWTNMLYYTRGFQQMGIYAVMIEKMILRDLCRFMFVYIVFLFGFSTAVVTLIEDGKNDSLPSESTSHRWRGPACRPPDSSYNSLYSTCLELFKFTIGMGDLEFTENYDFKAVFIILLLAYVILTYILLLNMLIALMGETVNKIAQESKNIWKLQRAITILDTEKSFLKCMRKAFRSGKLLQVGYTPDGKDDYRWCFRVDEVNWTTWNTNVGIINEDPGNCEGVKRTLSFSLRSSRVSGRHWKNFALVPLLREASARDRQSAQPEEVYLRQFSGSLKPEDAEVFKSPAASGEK

Row | Structure (SMILES) | IC50 (human capsaicin receptor [1]) [µM] | other results
1 | CC1CCCN1c1nc(-c2ccc(F)cc2)cc(N2CCC(c3nnn[nH]3)CC2)n1 (stereo not shown) [Compound 1, 4-(4-Fluoro-phenyl)-2-(2-methyl-pyrrolidin-1-yl)-6-[4-(1H-tetrazol-5-yl)-piperidin-1-yl]pyrimidine] | < 1 | 
2 | COc1cc(CNC(=O)CCCC/C=C/C(C)C)ccc1O [capsaicin] |  | EC90 (human capsaicin receptor [2]): ~0.1 µM
3 | Cl.Cl.Cl.Cl.Cl.Cl.N.N.N.N.N.N.N.N.N.N.N.N.N.N.[O-2].[O-2].[Ru+3].[Ru+3].[Ru+4] [ruthenium red] |  | Ki (VR): ≥ 140 µM
4 | CC1CCCN1c1nc(-c2ccc(F)cc2)cc(N2CCC(c3nccn3C)CC2)n1 (stereo not shown) [Compound 3] | < 1 | 
5 | CC1CCCN1c1nc(-c2ccc(F)cc2)cc(N2CCN(c3nccn3C)CC2)n1 (stereo not shown) [Compound 2, 4-(4-Fluoro-phenyl)-6-[4-(1-methyl-1H-imidazol-2-yl)-piperazin-1-yl]-2-(2-methyl-pyrrolidin-1-yl)-pyrimidine] | < 1 | 
6 | CC1CCCN1c1nc(-c2ccc(F)c(Cl)c2)cc(N2CCN(c3nsnc3Cl)CC2)n1 (stereo not shown) [Compound 4] | < 1 | 
7 | C[C@@H]1CCCN1c1nc(-c2ccc(F)c(Cl)c2)cc(N2CCN(c3nccn3C)CC2)n1 [Compound 5, 4-(3-Chloro-4-fluoro-phenyl)-6-[4-(1-methyl-1H-imidazol-2-yl)-piperazin-1-yl]-2-((R)-2-methyl-pyrrolidin-1-yl)-pyrimidine] | < 1 | 
